Assay results taken from patent publication US8158589B2, “Peptides with the capacity to bind to transforming growth factor β1 (TGF-β1)” (Proyecto Biomedicine Cima, S.L., priority 2003, dated 2012).
Ends that are not written are not given here.

Assays:
TGF-β1 [1] = target: T1, TGF-β1 (Mus musculus, UniProt P04202); test: Bleomycin-induced pulmonary fibrosis, preventive treatment started two days after bleomycin; type: in vivo, mice
T1 construct: from tissue; host or cells: liver of Balb/C mice (CCl4 model); lung of C57BL/6 mice (bleomycin model)
Procedure: Female C57BL/6 mice (6-8 weeks of age) were obtained from Harlan SL (Barcelona, Spain) and maintained in accordance with the ethical committee of Universidad de Navarra (Spain) for the experimental use of animals. Lung injury was induced with 0.08 units/mouse of bleomycin sulfate (Sigma, Spain) diluted in 200 μl of phosphate buffered saline (PBS). Briefly, the suspension of bleomycin was instilled by pippeting into the nose of mice previously anesthetized with 2% isoflurane vapor. PBS was instilled in mice as a negative control for pulmonary fibrosis (PF), following the same procedures. Peptide treatment was started two days after bleomycin challenge and it was administered intraperitoneally in 500 μl of PBS on alternate days. Mice received high (75 μg/mouse) or low (25 μg/mouse) doses of P17, or the high dose (75 μg/mouse) of control peptide P301. […] To study the therapeutic effect of P17 in the development of fibrosis, it was administered daily ten days after bleomycin challenge, once fibrosis was established. Twenty six days after bleomycin instillation, mice were sacrificed and lung samples were fixed in order to evaluate histological damage.
Total RNA was purified from IMR-90 fibroblasts and whole lung samples using Ultraspec RNA (Biotecx; Houston, Tex.) according to the manufacturer's instructions. First, 1 μg of RNA was incubated with Dnase I (2 U/μl) (Gibco-BRL) for 30 min at 37° C. Then, samples were reverse-transcribed with the M-MLV Reverse transcriptase (Gibco-BRL) in the presence of RNaseOUT (Gibco-BRL) with ramdon hexamers and poly (dT) oligos according to the manufacturer's protocol. Expression of human Connective Tissue Growth Factor (CTGF) mRNA induced by TGF-β1 in IMR-90 fibroblasts was measured by real time RT-PCR using an ICycler and IQ SYBR Supermix (Bio-Rad, Italy). Actin was used as endogenous reference housekeeping gene. For in vivo analysis, expression of murine Fibronectin (FN), extra domain A of Fibronectin (EDA-FN), Collagen type I and Interferon gamma (IFN-γ) was measured in lungs, using Histone 3 as internal control. The amount of each transcript was expressed by the formula: 2^ΔCt (ΔCt=Ct(control gene)−Ct(gene)), wherein Ct is the threshold cycle number at which an increase in the signal associated with exponential growth of PCR products begins to be detected using Bio-Rad analysis software.
Lungs were fixed by inflation with 4% paraformaldehyde overnight and dehydrated in 70% ethanol. Tissue was embedded in paraffin wax, 3 μm thick sections were prepared and stained with Masson's trichrome to measure collagen deposition. Percentage of fibrosis in the lung was evaluated by light microscopy by three different qualified persons using a blinded system.
Dewaxed and rehydrated lung tissue sections were subjected to endogenous peroxidase inactivation with a blocking reagent (DakoCytomation, Denmark) for 10 min. They were then incubated for two hours with a 1/50 dilution in PBS of mouse anti-human α-SMA monoclonal antibody (DakoCytomation) that cross-reacts with mouse α-SMA. Next, sections were incubated for 1 hour with a peroxidase-labeled polyclonal rabbit anti-mouse immunoglobulin (DakoCytomation). Peroxidase activity was visualized using DAB+ Chromogen (DakoCytomation) as substrate and sections were counterstained with Harris hematoxylin. Expression of αSMA was evaluated by light microscopy and expressed as percentage of α-SMA positive area.
Lymphocyte infiltrate in the lungs was also determined by immunohistochemical analysis. In this case, lung sections were incubated with a mouse anti-human αCD3 monoclonal antibody that cross-reacts with mouse CD3 (NeoMarkers, CA) and then with an anti-mouse immunoglobulin coupled with peroxidase (DakoCytomation). CD3-positive cells were counted in a whole lobe (about 20 fields).

TGF-β1 [2] = target: T2, TGF-β1 (Homo sapiens, UniProt P01137); test: Immunofluorescence of p-Smad2 translocation to the nucleus in rabbit corneal fibroblasts; type: cell-based; design: host or cells: added to a primary culture of rabbit corneal fibroblasts; conditions: TGF-β1 treated rabbit corneal fibroblasts
Procedure: Therefore, Western Blot and immunofluorescence studies were conducted to determine, from cells extracted from the in vivo studies, the signaling pathway used by the peptides administered topically. It should be emphasized that said studies were conducted on fibroblasts from rabbit cornea and not from rat cornea. This decision was made due to the difficulty entailed in isolating fibroblasts from rodent eyes.
Target sequence in this assay (P01137 279-390 limits assumed, species assumed): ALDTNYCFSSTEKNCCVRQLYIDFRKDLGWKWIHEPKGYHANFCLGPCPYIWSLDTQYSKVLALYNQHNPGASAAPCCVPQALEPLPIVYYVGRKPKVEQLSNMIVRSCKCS

TGF-β1 [3] = target: T2, TGF-β1; test: CTGF mRNA expression induced by TGF-β1 in IMR-90 lung fibroblasts, real time RT-PCR; type: cell-based; design: purchased R&D Systems; host or cells: added to IMR-90 human lung fibroblasts; conditions: IMR-90 cells, 5 ng/ml TGF-β1, peptide 100 μg/ml, 6 hours
Procedure: IMR-90 human lung fibroblasts (ATCC, Manassas, Va.) were cultured in EMEM medium (Cambrex, Belgium) supplemented with 10% fetal bovine serum (FBS), 1 mM sodium pyruvate, 0.1 mM nonessential amino acids, 100 U/ml penicillin and 100 μg/ml streptomycin (Gibco BRL, UK). For experiments, 6×10^4 cells/well were cultured in 6-well plates in 2 ml of medium and when they were 80% confluent, medium was replaced with serum-free EMEM for 48 h to induce quiescence. TGF-β1 (5 ng/ml) and P17 (100 μg/ml) were co-incubated for 90 min at 37° C. to allow binding of both molecules before addition to cell cultures. Quiescent cells were then stimulated with TGF-β1 and/or P17 for up to 6 or 24 h. After these incubation periods, fibroblasts were harvested for gene and protein analysis, respectively.
Total RNA was purified from IMR-90 fibroblasts and whole lung samples using Ultraspec RNA (Biotecx; Houston, Tex.) according to the manufacturer's instructions. […] Expression of human Connective Tissue Growth Factor (CTGF) mRNA induced by TGF-β1 in IMR-90 fibroblasts was measured by real time RT-PCR using an ICycler and IQ SYBR Supermix (Bio-Rad, Italy). […] For in vivo analysis, expression of murine Fibronectin (FN), extra domain A of Fibronectin (EDA-FN), Collagen type I and Interferon gamma (IFN-γ) was measured in lungs, using Histone 3 as internal control. […]
Target sequence in this assay (P01137 279-390 limits assumed): as the sequence (P01137 279-390 limits assumed, species assumed) above

[4] = 75 μg/mouse, 14 days after bleomycin instillation, RT-PCR

T1 sequence (P04202 279-390 limits assumed): as the sequence (P01137 279-390 limits assumed, species assumed) above, with A75S counted along it

## KRIWFIPRSSWYERA [SEQ ID NO: 17, KRIWFIPRSSWYERA]
TGF-β1 [1]; 25 μg/mouse intraperitoneally on alternate days from day 2, day 26
  lung fibrosis (Masson's Trichrome): No beneficial effect
TGF-β1 [1]; 75 μg/mouse intraperitoneally on alternate days from day 2, day 26, vs control peptide
  lung fibrosis (Masson's Trichrome): significant decrease of fibrosis
TGF-β1 [1]; [4]
  collagen type I mRNA in lungs: significant reduction
  fibronectin mRNA in lungs: significantly downregulated
TGF-β1 [1]; 75 μg/mouse, 14 days after bleomycin instillation, vs control peptide
  EDA-FN mRNA in lungs: lower expression levels
TGF-β1 [1]; 75 μg/mouse, RT-PCR
  IFN-γ mRNA expression in lungs: upregulated
TGF-β1 [1]; 75 μg/mouse, vs bleomycin mice with or without P301
  T lymphocytes (CD3+ cells) in lung sections: significant reduction
TGF-β1 [1]; P17 vs P301 control peptide, RT-PCR, data not shown
  IL-10 or IL-4 mRNA expression in lungs: did not show any significant difference
TGF-β1 [1]; high dose 75 μg/mouse, immunohistochemistry
  areas of myofibroblasts (α-SMA expression) in lungs: fewer areas of myofibroblasts
TGF-β1 [2]
  translocation of p-Smad2 to the nucleus: did not inhibit
TGF-β1 [3]
  CTGF mRNA expression induced by TGF-β1: significantly decreased
